5 compounds from ChEMBL document CHEMBL1130803, “Anti-HIV pronucleotides: decomposition pathways and correlation with biological activities” (Bioorg Med Chem Lett, 1998) can be followed below.

The test system of data set [1] is CCRF-CEM. The data set is described as follows: Compound was evaluated for anti-HIV activity against thymidine kinase deficient CEM cell line infected with HIV-1. It counts as functional, cell-based. The note with it: Homo sapiens.
Data set [2] has as its system CCRF-CEM. The data set is described as follows: Compound was evaluated for cytotoxicity against thymidine kinase deficient CEM cell line infected with HIV-1. Format: functional. Particulars: Homo sapiens.
Data set [3] can be described thus: Half-life at initial concentration of 5*10e-5 M in CEM cell extract. It counts as ADME, CCRF-CEM. Particulars: human.

The compound `Cc1cn([C@H]2C[C@H](N=[N+]=[N-])[C@@H](CO)O2)c(=O)[nH]c1=O` [ZIDOVUDINE] had an EC50 in data set [1] of over 100 µM. This compound also displayed a CC50 in data set [2] of over 100 µM.

Compound `COC(=O)[C@H](C)NP(=O)(OC[C@H]1O[C@@H](n2cc(C)c(=O)[nH]c2=O)C[C@@H]1N=[N+]=[N-])Oc1ccccc1` (some centres undefined) had a half-life in data set [3] of 2.5 h. For the same compound, in data set [1], the EC50 was determined as 4.1 µM. In data set [2], this compound had a CC50 of 97 µM.

As for `COC(=O)CNP(=O)(OCC1OC(n2cc(C)c(=O)[nH]c2=O)CC1N=[N+]=[N-])Oc1ccccc1` (centres undefined), the half-life in data set [3] was 21 h. This compound also displayed an EC50 in data set [1] of 63 µM. In addition, in data set [2], the CC50 is over 100 µM.

Compound `COC(=O)CCNP(=O)(OCC1OC(n2cc(C)c(=O)[nH]c2=O)CC1N=[N+]=[N-])Oc1ccccc1` (centres undefined) yielded a half-life in data set [3] of over 8 h. In data set [1], this compound returned an EC50 of over 100 µM. In data set [2], this compound returned a CC50 of over 100 µM.

For `CC(=O)OCCNP(=O)(OCC1OC(n2cc(C)c(=O)[nH]c2=O)CC1N=[N+]=[N-])Oc1ccccc1` (centres undefined), in data set [3], the half-life is 1.5 h. Further, the EC50 in data set [1] is over 10 µM. This compound also returned a 50% cytotoxic concentration (CC50) in data set [2] of over 10 µM.
